Test results reported in ChEMBL document CHEMBL1201862, “PubChem BioAssay data set” (2004).
Calls of active or inactive are those of the source.

Experiments:
Leucine aminopeptidase = target: T1, Leucine aminopeptidase (Plasmodium falciparum 3D7, UniProt Q8IL11); test: P. falciparum M17LAP inhibitors, primary screen, biochemical, fluorogenic H-Leu-NHMec substrate, 1536-well (AID 1619); assay type: functional
T1 sequence (Q8IL11 whole entry): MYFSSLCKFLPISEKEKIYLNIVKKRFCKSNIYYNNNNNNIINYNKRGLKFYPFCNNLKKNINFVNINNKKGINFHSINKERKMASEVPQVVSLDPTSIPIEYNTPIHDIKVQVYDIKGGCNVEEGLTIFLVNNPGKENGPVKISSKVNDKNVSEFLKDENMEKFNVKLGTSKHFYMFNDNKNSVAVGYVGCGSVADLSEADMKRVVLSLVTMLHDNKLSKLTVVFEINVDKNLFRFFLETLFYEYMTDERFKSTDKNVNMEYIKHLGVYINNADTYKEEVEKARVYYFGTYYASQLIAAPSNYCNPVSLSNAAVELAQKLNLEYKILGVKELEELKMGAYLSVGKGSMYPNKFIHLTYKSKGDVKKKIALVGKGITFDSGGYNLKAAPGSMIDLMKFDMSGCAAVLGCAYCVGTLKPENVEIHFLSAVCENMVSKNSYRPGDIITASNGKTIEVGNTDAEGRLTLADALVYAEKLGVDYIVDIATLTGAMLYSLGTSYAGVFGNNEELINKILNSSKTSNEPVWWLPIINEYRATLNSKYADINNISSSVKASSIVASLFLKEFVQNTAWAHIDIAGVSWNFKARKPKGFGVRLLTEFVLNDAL

[1] = viability loss of HPDE-C7K cells – cell-based, fluorescence, HTS, primary screen (AID 431); assay type: functional; settings: Homo sapiens
[2] = HPDE-C7 pancreatic duct cell viability loss – fluorescence, HTS (AID 430); assay type: functional, cell-based; settings: Homo sapiens
Aminopeptidase N = target: T2, Aminopeptidase N (Plasmodium falciparum FcB1/Columbia, UniProt O96935); test: malaria alanyl aminopeptidase activity blockers – biochemical, fluorogenic H-Leu-NHMec substrate, 1536-well (AID 1445); parameters: species or system Plasmodium falciparum 3D7, 3D7
T2 sequence (O96935 whole entry): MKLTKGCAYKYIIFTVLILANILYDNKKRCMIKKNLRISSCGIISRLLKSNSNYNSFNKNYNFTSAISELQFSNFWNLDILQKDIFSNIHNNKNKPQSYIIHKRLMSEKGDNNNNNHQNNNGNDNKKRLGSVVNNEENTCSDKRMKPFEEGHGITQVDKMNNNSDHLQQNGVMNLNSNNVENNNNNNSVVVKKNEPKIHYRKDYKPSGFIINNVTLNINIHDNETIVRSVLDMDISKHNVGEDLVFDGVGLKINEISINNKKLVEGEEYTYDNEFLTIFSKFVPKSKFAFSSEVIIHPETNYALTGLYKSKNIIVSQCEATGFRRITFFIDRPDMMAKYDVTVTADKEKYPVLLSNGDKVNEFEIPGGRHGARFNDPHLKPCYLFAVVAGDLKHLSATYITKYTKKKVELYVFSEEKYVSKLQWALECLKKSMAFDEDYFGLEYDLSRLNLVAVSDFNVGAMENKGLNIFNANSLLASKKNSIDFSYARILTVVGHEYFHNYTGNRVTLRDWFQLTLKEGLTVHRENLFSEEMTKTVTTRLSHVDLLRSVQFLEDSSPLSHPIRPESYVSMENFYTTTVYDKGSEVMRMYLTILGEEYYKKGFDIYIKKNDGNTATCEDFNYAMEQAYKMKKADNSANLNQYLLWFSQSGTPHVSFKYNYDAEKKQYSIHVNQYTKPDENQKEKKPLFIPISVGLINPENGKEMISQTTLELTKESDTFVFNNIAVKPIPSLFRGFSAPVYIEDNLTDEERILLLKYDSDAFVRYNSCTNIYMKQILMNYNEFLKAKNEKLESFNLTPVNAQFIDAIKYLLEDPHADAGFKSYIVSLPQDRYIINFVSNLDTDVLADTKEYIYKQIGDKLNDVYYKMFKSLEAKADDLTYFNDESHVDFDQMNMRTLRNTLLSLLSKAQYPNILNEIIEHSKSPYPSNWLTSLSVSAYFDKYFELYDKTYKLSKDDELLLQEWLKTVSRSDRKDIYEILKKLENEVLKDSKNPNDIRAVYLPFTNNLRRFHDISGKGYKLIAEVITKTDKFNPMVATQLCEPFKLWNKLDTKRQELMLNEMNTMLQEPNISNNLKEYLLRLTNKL

[3] = tested on: Streptococcus sp. 'group A'; test: Streptococcus pyogenes SK(-)GAS viability under kanamycin – luminescence, BacTiterGlo, confirmation, counter-screen for streptokinase expression inhibitor project, dose response (AID 1900); assay type: functional, organism-based
Nonstructural protein 1 = Nonstructural protein 1 (Influenza A virus, UniProt Q194T2); assay type: functional, Influenza A virus (A/California/07/2009(H1N1))
Streptococcus = test: GAS UMAA2166 growth inhibition – luminescence, BacTiterGlo, counter-screen for streptokinase expression inhibitor project, dose response (AID 1915); assay type: functional, organism-based;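 further: potency for reduction of bacterial viability or growth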
[4] = target: T3, Voltage-gated N-type calcium channel alpha-1B subunit/Amyloid beta A4 precursor protein-binding family A member 1 (Homo sapiens, UniProt Q00975+Q02410); assay type: protein assay
[5] = target: T3, Voltage-gated N-type calcium channel alpha-1B subunit/Amyloid beta A4 precursor protein-binding family A member 1; assay type: protein assay; remark: listed apart in the source
[6] = target: T4, Tyrosine-protein phosphatase non-receptor type 7 (Homo sapiens, UniProt P35236); test: redox-active compounds inhibiting HePTP phosphatase – biochemical, fluorescence, mechanism study (AID 2068); assay type: functional
T4 sequence (P35236 whole entry): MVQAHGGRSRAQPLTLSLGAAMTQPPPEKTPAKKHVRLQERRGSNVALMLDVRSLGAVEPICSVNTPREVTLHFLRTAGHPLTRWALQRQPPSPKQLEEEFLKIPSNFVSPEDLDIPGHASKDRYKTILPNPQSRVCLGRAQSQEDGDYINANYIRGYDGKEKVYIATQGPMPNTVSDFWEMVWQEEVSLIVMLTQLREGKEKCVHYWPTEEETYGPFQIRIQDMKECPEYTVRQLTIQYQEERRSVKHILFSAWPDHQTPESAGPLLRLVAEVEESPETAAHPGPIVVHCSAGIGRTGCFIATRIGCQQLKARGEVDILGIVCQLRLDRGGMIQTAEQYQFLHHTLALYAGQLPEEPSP

[7] = toxicity to human hepatoma HepG2 cells – cell-based, cherry-picked samples, cytotoxicity control, dose response (AID 1159577); assay type: functional
[8] = P. falciparum Dd2 growth inhibitors, dose response, SYBR Green, cherry-picked samples (AID 1159567); assay type: functional, cell-based
[9] = target: T5, Short transient receptor potential channel 4 (Mus musculus, UniProt Q9QUQ5); test: calcium entry via TRPC4 opening agents – cell-based, HEK293 TRPC4/mu-opioid, Fluo-4 calcium, dose response (AID 434937); assay type: functional
T5 sequence (Q9QUQ5 whole entry): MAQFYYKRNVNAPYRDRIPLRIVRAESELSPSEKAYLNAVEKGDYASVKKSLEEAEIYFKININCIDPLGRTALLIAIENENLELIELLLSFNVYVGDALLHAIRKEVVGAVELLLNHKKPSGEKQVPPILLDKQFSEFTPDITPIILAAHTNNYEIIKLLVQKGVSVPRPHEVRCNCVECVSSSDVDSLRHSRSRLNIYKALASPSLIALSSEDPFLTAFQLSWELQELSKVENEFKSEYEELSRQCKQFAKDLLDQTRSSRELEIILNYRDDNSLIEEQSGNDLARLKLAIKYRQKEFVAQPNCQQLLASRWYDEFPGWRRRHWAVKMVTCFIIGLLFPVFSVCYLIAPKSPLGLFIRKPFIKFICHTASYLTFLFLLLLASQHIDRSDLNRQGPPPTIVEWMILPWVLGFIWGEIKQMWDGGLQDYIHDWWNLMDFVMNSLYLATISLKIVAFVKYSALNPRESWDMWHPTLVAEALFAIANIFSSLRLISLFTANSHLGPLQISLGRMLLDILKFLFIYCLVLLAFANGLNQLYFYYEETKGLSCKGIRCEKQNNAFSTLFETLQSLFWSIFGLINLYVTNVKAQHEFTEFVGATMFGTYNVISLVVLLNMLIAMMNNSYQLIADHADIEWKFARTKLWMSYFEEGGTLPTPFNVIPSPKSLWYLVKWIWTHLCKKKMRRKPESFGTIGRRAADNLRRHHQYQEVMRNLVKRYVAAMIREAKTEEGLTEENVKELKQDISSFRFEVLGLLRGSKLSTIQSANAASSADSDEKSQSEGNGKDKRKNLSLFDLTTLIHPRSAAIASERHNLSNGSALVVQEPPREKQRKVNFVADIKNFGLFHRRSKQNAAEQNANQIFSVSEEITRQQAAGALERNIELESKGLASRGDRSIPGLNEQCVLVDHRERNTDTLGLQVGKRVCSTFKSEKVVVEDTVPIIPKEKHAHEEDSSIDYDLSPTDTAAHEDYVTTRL

T3 sequence (Q00975 whole entry): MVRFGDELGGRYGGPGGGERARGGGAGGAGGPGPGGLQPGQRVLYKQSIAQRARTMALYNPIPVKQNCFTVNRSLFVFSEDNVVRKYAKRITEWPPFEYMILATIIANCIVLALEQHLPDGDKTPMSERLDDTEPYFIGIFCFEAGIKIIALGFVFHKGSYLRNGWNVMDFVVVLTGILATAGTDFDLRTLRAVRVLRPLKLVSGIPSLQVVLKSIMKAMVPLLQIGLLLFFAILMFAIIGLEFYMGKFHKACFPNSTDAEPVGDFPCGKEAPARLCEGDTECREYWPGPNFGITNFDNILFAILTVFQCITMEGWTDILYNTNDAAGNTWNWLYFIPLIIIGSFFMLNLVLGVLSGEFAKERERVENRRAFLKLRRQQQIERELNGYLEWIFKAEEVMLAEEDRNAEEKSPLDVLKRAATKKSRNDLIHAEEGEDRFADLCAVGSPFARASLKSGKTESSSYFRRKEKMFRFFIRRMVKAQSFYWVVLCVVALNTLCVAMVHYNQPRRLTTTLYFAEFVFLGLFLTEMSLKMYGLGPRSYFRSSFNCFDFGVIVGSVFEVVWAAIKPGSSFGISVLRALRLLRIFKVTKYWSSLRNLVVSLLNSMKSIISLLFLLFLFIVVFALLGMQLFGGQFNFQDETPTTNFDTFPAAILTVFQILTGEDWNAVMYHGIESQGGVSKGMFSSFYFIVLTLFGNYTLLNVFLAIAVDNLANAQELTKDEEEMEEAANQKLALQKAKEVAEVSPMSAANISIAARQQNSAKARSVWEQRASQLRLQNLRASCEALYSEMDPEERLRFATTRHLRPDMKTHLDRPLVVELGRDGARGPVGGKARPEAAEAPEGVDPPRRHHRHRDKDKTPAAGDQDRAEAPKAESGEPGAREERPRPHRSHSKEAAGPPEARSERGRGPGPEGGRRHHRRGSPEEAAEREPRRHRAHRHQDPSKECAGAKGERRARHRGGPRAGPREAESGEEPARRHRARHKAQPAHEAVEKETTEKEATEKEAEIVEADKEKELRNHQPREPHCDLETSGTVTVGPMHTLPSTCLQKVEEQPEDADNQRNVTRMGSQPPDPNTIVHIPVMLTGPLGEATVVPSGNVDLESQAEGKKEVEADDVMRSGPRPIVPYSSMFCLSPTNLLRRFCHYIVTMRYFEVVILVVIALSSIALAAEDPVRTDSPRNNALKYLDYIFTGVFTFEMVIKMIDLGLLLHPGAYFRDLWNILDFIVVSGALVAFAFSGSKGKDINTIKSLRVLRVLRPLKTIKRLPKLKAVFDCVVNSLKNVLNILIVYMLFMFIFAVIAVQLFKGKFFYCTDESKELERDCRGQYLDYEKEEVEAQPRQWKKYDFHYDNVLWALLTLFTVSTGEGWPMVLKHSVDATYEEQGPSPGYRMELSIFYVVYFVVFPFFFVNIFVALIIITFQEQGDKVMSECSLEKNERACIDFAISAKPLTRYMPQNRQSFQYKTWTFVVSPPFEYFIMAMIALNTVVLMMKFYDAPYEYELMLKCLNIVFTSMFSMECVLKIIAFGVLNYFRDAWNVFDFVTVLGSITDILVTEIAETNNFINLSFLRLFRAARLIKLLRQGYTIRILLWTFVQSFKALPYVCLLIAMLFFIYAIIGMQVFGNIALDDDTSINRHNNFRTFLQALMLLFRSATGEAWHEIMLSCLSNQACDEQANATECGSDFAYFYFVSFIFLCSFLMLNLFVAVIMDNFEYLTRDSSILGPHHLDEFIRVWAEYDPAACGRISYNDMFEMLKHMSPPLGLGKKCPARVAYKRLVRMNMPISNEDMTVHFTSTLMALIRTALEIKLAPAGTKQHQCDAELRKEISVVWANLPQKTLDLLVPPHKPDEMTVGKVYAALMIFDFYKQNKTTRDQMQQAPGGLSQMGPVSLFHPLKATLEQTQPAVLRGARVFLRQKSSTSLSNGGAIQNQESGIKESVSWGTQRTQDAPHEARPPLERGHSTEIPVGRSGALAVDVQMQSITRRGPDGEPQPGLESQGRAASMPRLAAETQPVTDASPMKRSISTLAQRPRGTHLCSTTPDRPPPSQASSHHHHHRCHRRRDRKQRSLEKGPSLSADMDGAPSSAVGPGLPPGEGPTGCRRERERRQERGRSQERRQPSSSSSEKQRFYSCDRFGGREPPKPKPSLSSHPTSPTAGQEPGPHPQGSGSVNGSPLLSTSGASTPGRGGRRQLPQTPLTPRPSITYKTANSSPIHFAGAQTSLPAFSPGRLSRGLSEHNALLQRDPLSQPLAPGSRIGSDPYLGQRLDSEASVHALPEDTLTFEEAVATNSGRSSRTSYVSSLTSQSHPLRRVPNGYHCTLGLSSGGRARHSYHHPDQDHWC
T3 sequence (Q02410 whole entry): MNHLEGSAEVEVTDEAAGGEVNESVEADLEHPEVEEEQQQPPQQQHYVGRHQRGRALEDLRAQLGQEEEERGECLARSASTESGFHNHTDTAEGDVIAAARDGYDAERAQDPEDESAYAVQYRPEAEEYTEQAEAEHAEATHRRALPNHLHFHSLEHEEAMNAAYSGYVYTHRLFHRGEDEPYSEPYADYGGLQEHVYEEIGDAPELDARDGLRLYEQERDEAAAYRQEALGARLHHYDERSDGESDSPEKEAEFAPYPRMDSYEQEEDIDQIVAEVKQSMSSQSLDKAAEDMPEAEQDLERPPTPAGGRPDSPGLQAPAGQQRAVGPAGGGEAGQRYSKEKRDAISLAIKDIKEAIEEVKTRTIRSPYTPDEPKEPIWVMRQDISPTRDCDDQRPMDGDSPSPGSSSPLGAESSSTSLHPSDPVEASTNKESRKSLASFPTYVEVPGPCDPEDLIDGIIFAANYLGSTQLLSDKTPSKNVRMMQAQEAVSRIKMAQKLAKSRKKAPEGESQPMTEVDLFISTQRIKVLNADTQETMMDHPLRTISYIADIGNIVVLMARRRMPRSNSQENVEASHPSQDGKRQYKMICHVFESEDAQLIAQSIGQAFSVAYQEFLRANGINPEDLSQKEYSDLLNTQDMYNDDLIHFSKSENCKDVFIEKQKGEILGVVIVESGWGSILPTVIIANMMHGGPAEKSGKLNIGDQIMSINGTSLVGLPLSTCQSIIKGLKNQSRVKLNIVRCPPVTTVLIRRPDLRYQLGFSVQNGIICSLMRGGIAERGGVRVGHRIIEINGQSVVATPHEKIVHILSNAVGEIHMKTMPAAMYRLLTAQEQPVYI
Chain of Nonstructural protein 1 (Q194T2 whole entry): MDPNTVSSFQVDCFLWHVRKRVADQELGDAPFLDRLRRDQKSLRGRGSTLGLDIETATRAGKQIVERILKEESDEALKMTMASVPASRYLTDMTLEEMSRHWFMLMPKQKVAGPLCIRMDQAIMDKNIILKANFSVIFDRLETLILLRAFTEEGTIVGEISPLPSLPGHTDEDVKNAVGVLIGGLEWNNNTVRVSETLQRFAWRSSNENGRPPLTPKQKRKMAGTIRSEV

Structure (SMILES): O=C(CSc1ccccc1C(=O)O)NCc1ccc(Cl)cc1
- IC50 (Leucine aminopeptidase): 17.4 µM (active)

Structure (SMILES): CN(C)/C=C/C(=O)c1nnn(C2CCCCC2)c1NC1CCCCC1
- EC50 [1]: > 20 µM (not active)
- EC50 [2]: > 20 µM (not active)

Structure (SMILES): Cc1c(C)c2cc(Cl)c(O)c(CN3CCCC(C)C3)c2oc1=O (configuration not stated)
- IC50 (Aminopeptidase N): 43.1 µM (active)

Structure (SMILES): Cc1cccnc1NCc1ccc(O)c2ncccc12
- EC50 [3]: 2.9 µM (active)
- EC50 [1]: 10 µM (active)
- IC50 (Nonstructural protein 1): 14.1 µM (active)
- EC50 [2]: 13.6 µM (active)
- EC50 (Streptococcus): 3.33 µM (active)

Structure (SMILES): Cc1c(N2C(=O)C(O)=C(C(=O)c3ccc(Cl)cc3)C2c2ccccc2)c(=O)n(-c2ccccc2)n1C (configuration not stated)
- IC50 (Aminopeptidase N): 62.1 µM (active)

Structure (SMILES): O=C(CCN1C(=O)/C(=C/c2ccc(Cl)cc2)SC1=S)NC1C=CS(=O)(=O)C1 (configuration not stated)
- IC50 [4]: > 50 µM (inactive)
- IC50 [5]: 8.45 µM (active)

Structure (SMILES): COc1ccc(-c2[nH]ncc2/C=C(\C#N)C(=O)NC2CC2)cc1
- IC50 (Leucine aminopeptidase): 36.9 µM (active)

Structure (SMILES): O=C(Nc1ccc2nc(-c3ccco3)c(-c3ccco3)nc2c1)N1CCSCC1
- IC50 [6]: 3.36 µM (active)

Structure (SMILES): N#C[C@H]1[C@H](c2ccc(C#CC3CCCCC3)cc2)[C@@H](CO)N1C(=O)Nc1ccc(F)cc1
- AC50 [7]: 9.27 µM (active)
- AC50 [8]: 4.35 µM (active)

Structure (SMILES): CCN1CCCC1CNS(=O)(=O)c1c(C)cc(C)cc1C (configuration not stated)
- EC50 [9]: 3.35 µM (active)
